The values below come from US9394297B2, “Amides as pim inhibitors” (AMGEN INC., priority 2012, dated 2016).

SMILES strings stand for the structures. Read-outs that look alike come from different tables or passages of the source.

The target in test [1] is T1, Pim-2 (Homo sapiens (Human), UniProt Q9P1W9). As to the kind of experiment: Pim enzyme assay (HTRF, 96-well), Pim-2. As to conditions: full length recombinant Pim-2, biotinylated-BAD (S112) peptide, 10-point curve, 45 min RT, read-out: Pim-2 IC50 IP. The class given is biochemical. The method in brief: (§1)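 HTRF detection of biotinylated BAD (S112) phosphorylation by full-length recombinant His-tagged Pim-1 or Pim-2 in 60 mM Hepes pH 7.0, 0.05% BSA, 2 mM DTT at 22 °C: 2 h for Pim-1, 45 min for Pim-2. Stopped with EDTA; IC50 from 4-parameter logistic fit of percent of control.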
T1 sequence (Q9P1W9 whole entry): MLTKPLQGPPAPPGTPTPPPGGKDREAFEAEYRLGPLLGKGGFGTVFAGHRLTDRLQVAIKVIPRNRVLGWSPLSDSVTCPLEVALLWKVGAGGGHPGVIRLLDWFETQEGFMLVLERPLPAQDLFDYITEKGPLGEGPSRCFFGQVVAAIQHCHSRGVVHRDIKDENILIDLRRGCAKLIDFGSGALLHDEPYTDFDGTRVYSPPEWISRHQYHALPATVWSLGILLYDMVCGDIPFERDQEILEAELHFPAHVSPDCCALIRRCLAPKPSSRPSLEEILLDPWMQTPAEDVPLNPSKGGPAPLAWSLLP
(TR-FRET usually uses a lanthanide donor and a delayed reading to cut background.)

The test system of test [2] is KMS-12-BM myeloma cell line. As to the kind of experiment: Pim KMS-12 cell assay (phospho-BAD S112 / total BAD, MSD). The conditions noted are these: Homo sapiens, KMS-12-BM.
For test [3], the target named is T2, Pim-1 (Homo sapiens (Human), UniProt P11309). As to the kind of experiment: Pim enzyme assay (HTRF, 96-well), Pim-1. The conditions noted are these: full length recombinant Pim-1, biotinylated-BAD (S112) peptide, 10-point curve, 2 h RT, read-out: Pim-1 IC50 IP. Type of test: biochemical. The method in brief: as §1
T2 sequence (P11309 whole entry): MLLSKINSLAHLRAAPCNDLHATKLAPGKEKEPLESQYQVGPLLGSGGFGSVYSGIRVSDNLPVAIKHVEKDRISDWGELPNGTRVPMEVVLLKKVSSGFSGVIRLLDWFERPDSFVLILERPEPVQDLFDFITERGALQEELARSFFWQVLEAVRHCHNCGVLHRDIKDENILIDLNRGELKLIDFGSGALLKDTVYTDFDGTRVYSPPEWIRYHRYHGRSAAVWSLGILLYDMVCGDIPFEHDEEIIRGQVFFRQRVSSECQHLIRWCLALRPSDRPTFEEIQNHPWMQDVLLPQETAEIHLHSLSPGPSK
Test [4] concerns the target T1, Pim-2. The experiment in a line: Pim-Mn enzyme assay (HTRF, 384-well), Pim-2. Type of test: biochemical. The conditions noted are these: Pim-2 enzyme 0.5 pM, ATP 1.5 μM, BAD (S112) 0.5 μM, HTRF, 22-point curve; read-out: Pim-2-Mn IC50 IP.
For test [5], the target named is T2, Pim-1. As to the kind of experiment: Pim-Mn enzyme assay (HTRF, 384-well), Pim-1. The class given is biochemical. The conditions noted are these: Pim-1 enzyme 5 pM, ATP 1.5 μM, BAD (S112) 0.5 μM, HTRF, 22-point curve; read-out: Pim-1-Mn IC50 IP.
Where [6] appears, read: read-out: KMS-12-BM IC50 IP, KMS-12-BM cells, phospho-BAD (S112) vs total BAD, 1 hour 50 min with compound.

On to `N[C@H]1CCC[C@H](Nc2ccc3cccc(-c4cc5c([nH]4)CCNC5=O)c3n2)C1` (racemic) [Example 120, rac-2-(2-((trans-3-aminocyclohexyl)amino)quinolin-8-yl)-6,7-dihydro-1H-pyrrolo[3,2-c]pyridin-4(5H)-one], for which the IC50 in test [1] was 4.6 nM; in test [2] (setting [6]) it was 2210 nM; in test [3] it was 0.6 nM.

Turning to `CC1CNC(=O)c2cc(-c3cccc4ncc(Nc5ccccc5)nc34)[nH]c21` (racemic) [Example 187, rac-7-methyl-2-(3-(phenylamino)quinoxalin-5-yl)-6,7-dihydro-1H-pyrrolo[3,2-c]pyridin-4(5H)-one], the 50% inhibitory concentration (IC50) in test [1] came to 4.3 nM; in test [2] (setting [6]), 1280 nM; in test [3], 1.9 nM.

In the case of `Cc1nc2cccc(-c3cc4c([nH]3)CCNC4=O)c2nc1NC1CCCNC1=O` (racemic) [Example 200, rac-2-(2-methyl-3-((2-oxopiperidin-3-yl)amino)quinoxalin-5-yl)-6,7-dihydro-1H-pyrrolo[3,2-c]pyridin-4(5H)-one], the half-maximal inhibitory concentration (IC50) in test [4] was 41.8 nM; in test [1], 85.7 nM; in test [3], 110 nM; in test [5] it was 53.6 nM.

Regarding `N[C@@H]1CCC[C@H](Nc2ccc3cccc(-c4cc5c([nH]4)CCNC5=O)c3n2)C1` (single isomer, unassigned) [Example 122, 2-(2-((cis-3-aminocyclohexyl)amino)quinolin-8-yl)-6,7-dihydro-1H-pyrrolo[3,2-c]pyridin-4(5H)-one], the half-maximal inhibitory concentration (IC50) is 0.3 nM in test [1], 348 nM in test [2] (setting [6]) and 0.1 nM in test [3].

With `O=C1NCCc2[nH]c(-c3cccc4ccc(Nc5ccccc5)nc34)cc21` [Example 2, 2-(2-(phenylamino)quinolin-8-yl)-6,7-dihydro-1H-pyrrolo[3,2-c]pyridin-4(5H)-one], the 50% inhibitory concentration (IC50) in test [1] was determined as 8 nM; in test [2] (read-out: KMS-12-BM IC50 IP) it was 708 nM; in test [3] it was 1.6 nM.

For `O=C1NCCc2[nH]c(-c3cccc4ccc(Cc5ccccc5)nc34)cc21` [Example 3, 2-(2-benzylquinolin-8-yl)-6,7-dihydro-1H-pyrrolo[3,2-c]pyridin-4(5H)-one], the IC50 in test [1] was 37 nM; in test [2] (read-out: KMS-12-BM IC50 IP) it was 6100 nM; in test [3], 12.8 nM.

On to `CN(c1ccccc1)c1ccc2cccc(-c3cc4c([nH]3)CCNC4=O)c2n1` [Example 4, 2-(2-(methyl(phenyl)amino)quinolin-8-yl)-6,7-dihydro-1H-pyrrolo[3,2-c]pyridin-4(5H)-one], for which the half-inhibitory concentration (IC50) in test [1] was determined as 6.8 nM; in test [2] (read-out: KMS-12-BM IC50 IP), 2340 nM; in test [3], 2.1 nM.

As for `O=C1NCCc2[nH]c(-c3cccc4ccc(Nc5ccccc5F)nc34)cc21` [Example 6, 2-(2-((2-fluorophenyl)amino)quinolin-8-yl)-6,7-dihydro-1H-pyrrolo[3,2-c]pyridin-4(5H)-one], the IC50 in test [1] was determined as 4.6 nM; in test [2] (setting [6]) it was 1170 nM; in test [3], 1.2 nM.

For `O=C1NCCc2[nH]c(-c3cccc4ccc(Nc5c(F)cccc5Cl)nc34)cc21` [Example 7, 2-(2-((2-chloro-6-fluorophenyl)amino)quinolin-8-yl)-6,7-dihydro-1H-pyrrolo[3,2-c]pyridin-4(5H)-one], the IC50 came out at 5.2 nM in test [1], 2740 nM in test [2] (setting [6]) and 1 nM in test [3].

With `O=C1NCCc2[nH]c(-c3cccc4ccc(Nc5ccc(F)cc5F)nc34)cc21` [Example 8, 2-(2-((2,4-difluorophenyl)amino)quinolin-8-yl)-6,7-dihydro-1H-pyrrolo[3,2-c]pyridin-4(5H)-one], the 50% inhibitory concentration (IC50) in test [1] worked out at 12.7 nM; in test [2] (setting [6]) it was 1280 nM; in test [3] it was 2.8 nM.

As to `O=C1NCCc2[nH]c(-c3cccc4ccc(Oc5c(F)cccc5Cl)nc34)cc21` [Example 9, 2-(2-(2-chloro-6-fluorophenoxy)quinolin-8-yl)-6,7-dihydro-1H-pyrrolo[3,2-c]pyridin-4(5H)-one], the half-inhibitory concentration (IC50) was determined as 8.6 nM in test [1], 6350 nM in test [2] (setting [6]) and 4.6 nM in test [3].

For the compound `O=C1NCCc2[nH]c(-c3cccc4ccc(Oc5ccc(F)cc5F)nc34)cc21` [Example 10, 2-(2-(2,4-difluorophenoxy)quinolin-8-yl)-6,7-dihydro-1H-pyrrolo[3,2-c]pyridin-4(5H)-one], the concentration for half-maximal inhibition (IC50) is 21.1 nM in test [1], 7490 nM in test [2] (setting [6]) and 12.1 nM in test [3].

For `O=C1NCCc2[nH]c(-c3cccc4ccc(Oc5ccccc5F)nc34)cc21` [Example 11, 2-(2-(2-fluorophenoxy)quinolin-8-yl)-6,7-dihydro-1H-pyrrolo[3,2-c]pyridin-4(5H)-one], the concentration for half-maximal inhibition (IC50) in test [1] worked out at 10.3 nM; in test [2] (setting [6]), 7000 nM; in test [3], 6.1 nM.

For the compound `CCN(c1ccccc1)c1ccc2cccc(-c3cc4c([nH]3)CCNC4=O)c2n1` [Example 14, 2-(2-(ethyl(phenyl)amino)quinolin-8-yl)-6,7-dihydro-1H-pyrrolo[3,2-c]pyridin-4(5H)-one], the half-inhibitory concentration (IC50) in test [1] was found to be 6 nM; in test [2] (setting [6]), 2340 nM; in test [3], 1.1 nM.

Consider `O=C1NCCc2[nH]c(-c3cccc4ccc(Nc5ccc(Cl)cc5)nc34)cc21` [Example 15, 2-(2-((4-chlorophenyl)amino)quinolin-8-yl)-6,7-dihydro-1H-pyrrolo[3,2-c]pyridin-4(5H)-one], for which the 50% inhibitory concentration (IC50) in test [1] was 20.4 nM; in test [2] (read-out: KMS-12-BM IC50 IP), 3230 nM; in test [3], 4 nM.

For `O=c1[nH]cnc2[nH]c(-c3cccc4ccc(Nc5ccccc5)nc34)cc12` [Example 16, 6-(2-(phenylamino)quinolin-8-yl)-3H-pyrrolo[2,3-d]pyrimidin-4(7H)-one], the concentration for half-maximal inhibition (IC50) in test [1] was 13.5 nM; in test [2] (read-out: KMS-12-BM IC50 IP) it was 3850 nM; in test [3], 2.7 nM.

For `O=C1NCCc2[nH]c(-c3cccc4ccc(NCc5ccccc5)nc34)cc21` [Example 21, 2-(2-(benzylamino)quinolin-8-yl)-6,7-dihydro-1H-pyrrolo[3,2-c]pyridin-4(5H)-one], the IC50 came out at 21.6 nM in test [1], 4920 nM in test [2] (setting [6]) and 2.8 nM in test [3].

On to `CCN(c1cccnc1)c1ccc2cccc(-c3cc4c([nH]3)CCNC4=O)c2n1` [Example 32, 2-(2-(ethyl(pyridin-3-yl)amino)quinolin-8-yl)-6,7-dihydro-1H-pyrrolo[3,2-c]pyridin-4(5H)-one], for which the IC50 turned out to be 0.6 nM in test [1], 1390 nM in test [2] (setting [6]) and 0.3 nM in test [3].

With `O=C1NCCc2[nH]c(-c3cccc4ccc(Oc5ccccc5)nc34)cc21` [Example 37, 2-(2-phenoxyquinolin-8-yl)-6,7-dihydro-1H-pyrrolo[3,2-c]pyridin-4(5H)-one], the IC50 in test [1] is 13.9 nM; in test [2] (setting [6]), 5530 nM; in test [3] it was 5.9 nM.

Turning to `O=C1NCCc2[nH]c(-c3cccc4ccc(Nc5cccnc5)nc34)cc21` [Example 38, 2-(2-(3-pyridinylamino)-8-quinolinyl)-1,5,6,7-tetrahydro-4H-pyrrolo[3,2-c]pyridin-4-one], the results for the concentration for half-maximal inhibition (IC50) in test [1], in test [2] (setting [6]) and in test [3] were 0.7 nM, 1290 nM and 0.3 nM, respectively.

Consider `O=C1NCCc2[nH]c(-c3cccc4ccc(Oc5cccnc5)nc34)cc21` [Example 39, 2-(2-(3-pyridinyloxy)-8-quinolinyl)-1,5,6,7-tetrahydro-4H-pyrrolo[3,2-c]pyridin-4-one], for which the IC50 in test [1] amounted to 4.6 nM; in test [2] (setting [6]), 5380 nM; in test [3] it was 6.3 nM.

Turning to `O=C1NCCc2[nH]c(-c3cccc4ccc(Oc5cccc(F)c5)nc34)cc21` [Example 42, 2-(2-(3-fluorophenoxy)-8-quinolinyl)-1,5,6,7-tetrahydro-4H-pyrrolo[3,2-c]pyridin-4-one], the IC50 in test [1] came to 9.1 nM; in test [2] (setting [6]), 3460 nM; in test [3], 3.6 nM.

In the case of `Cc1cccc(Nc2ccc3cccc(-c4cc5c([nH]4)CCNC5=O)c3n2)c1` [Example 44, 2-(2-((3-methylphenyl)amino)-8-quinolinyl)-1,5,6,7-tetrahydro-4H-pyrrolo[3,2-c]pyridin-4-one], the 50% inhibitory concentration (IC50) is 29.2 nM in test [1], 13100 nM in test [2] (read-out: KMS-12-BM IC50 IP) and 7.2 nM in test [3].

On to `Cc1nc2cccc(-c3cc4c([nH]3)CCNC4=O)c2nc1N1CCC1` [Example 139, 2-(3-(azetidin-1-yl)-2-methylquinoxalin-5-yl)-6,7-dihydro-1H-pyrrolo[3,2-c]pyridin-4(5H)-one], for which the half-maximal inhibitory concentration (IC50) turned out to be 19.7 nM in test [4], 16 nM in test [1], 17.6 nM in test [3] and 24.2 nM in test [5].

As for `Cn1cc(-c2ccc3ccc(F)c(-c4cc5c([nH]4)CCNC5=O)c3n2)cn1` [Example 229, 2-(7-fluoro-2-(1-methyl-1H-pyrazol-4-yl)quinolin-8-yl)-6,7-dihydro-1H-pyrrolo[3,2-c]pyridin-4(5H)-one], the figures for the half-inhibitory concentration (IC50) in test [1], in test [3] and in test [5] were 92 nM, 92 nM and 90.9 nM, respectively.

Usually IC50 stands for the concentration at which inhibition is half-maximal.
